Data: patent publication US10894784B2, “Heteroarylbenzimidazole compounds” (BAYER PHARMA AKTIENGESELLSCHAFT, priority 2015, dated 2021)

What follows are compounds tested against TBK1 (Homo sapiens (Human), UniProt Q9UHD2) (assay: TBK1 low ATP kinase assay (in vitro assay 1)). Settings: in vitro assay 1, read-out: TBK1 low ATP kinase assay IC50.
Type: biochemical

Chain of TBK1 (Q9UHD2 whole entry): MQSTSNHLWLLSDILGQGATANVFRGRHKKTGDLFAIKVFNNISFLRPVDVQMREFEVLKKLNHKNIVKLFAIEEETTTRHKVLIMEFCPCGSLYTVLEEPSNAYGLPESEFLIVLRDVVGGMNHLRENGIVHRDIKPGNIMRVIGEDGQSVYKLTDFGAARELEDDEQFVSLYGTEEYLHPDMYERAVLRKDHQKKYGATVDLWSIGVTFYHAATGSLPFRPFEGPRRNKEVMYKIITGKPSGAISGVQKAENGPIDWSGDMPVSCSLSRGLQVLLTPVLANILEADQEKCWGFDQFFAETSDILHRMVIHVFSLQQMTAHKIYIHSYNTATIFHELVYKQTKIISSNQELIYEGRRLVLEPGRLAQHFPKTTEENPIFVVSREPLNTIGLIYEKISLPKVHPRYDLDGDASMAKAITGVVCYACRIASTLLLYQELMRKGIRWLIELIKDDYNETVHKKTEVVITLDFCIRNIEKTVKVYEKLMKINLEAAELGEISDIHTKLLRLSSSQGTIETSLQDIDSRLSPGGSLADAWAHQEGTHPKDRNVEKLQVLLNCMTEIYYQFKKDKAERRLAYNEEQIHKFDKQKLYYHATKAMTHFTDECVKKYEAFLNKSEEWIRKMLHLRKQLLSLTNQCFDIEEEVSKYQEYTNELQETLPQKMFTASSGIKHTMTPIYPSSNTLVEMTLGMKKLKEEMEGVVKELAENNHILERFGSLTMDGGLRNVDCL

Compound	IC50
O=C(CC(F)(F)F)N1CCN(Cc2ccnc(Nc3nc4ccc(-c5ccn[nH]5)cc4[nH]3)c2)CC1 [Example 124.02, 3,3,3-trifluoro-1-{4-[(2-{[6-(1H-pyrazol-5-yl)-1H-benzimidazol-2-yl]amino}pyridin-4-yl)methyl]piperazin-1-yl}propan-1-one]	100 nM
Cc1noc(-c2ccc3nc(Nc4cc(CN5CCN(C(=O)CC(F)(F)F)CC5)c(Br)cn4)[nH]c3c2)n1 [Example 125.02, 1-{4-[(5-bromo-2-{[6-(3-methyl-1,2,4-oxadiazol-5-yl)-1H-benzimidazol-2-yl]amino}pyridin-4-yl)methyl]piperazin-1-yl}-3,3,3-trifluoropropan-1-one]	650 nM
Cc1nccc(-c2ccc3nc(Nc4cc(CN5CCN(C(=O)OC(C)(C)C)CC5)ccn4)[nH]c3c2)c1Cl [Example 130.01, tert-butyl 4-[(2-{[6-(3-chloro-2-methylpyridin-4-yl)-1H-benzimidazol-2-yl]amino}pyridin-4-yl)methyl]piperazine-1-carboxylate]	890 nM
Cc1nccc(-c2ccc3nc(Nc4cc(CN5CCN(C(=O)CC(F)(F)F)CC5)ccn4)[nH]c3c2)c1Cl [Example 130.02, 1-{4-[(2-{[6-(3-chloro-2-methylpyridin-4-yl)-1H-benzimidazol-2-yl]amino}pyridin-4-yl)methyl]piperazin-1-yl}-3,3,3-trifluoropropan-1-one]	190 nM
Cc1nccc(-c2ccc3nc(Nc4cc(CN5CCN(C(=O)C6CC6)CC5)ccn4)[nH]c3c2)c1Cl [Example 130.03, {4-[(2-{[6-(3-chloro-2-methylpyridin-4-yl)-1H-benzimidazol-2-yl]amino}pyridin-4-yl)methyl]piperazin-1-yl}(cyclopropyl)methanone]	250 nM
Cc1cc(-c2ccc3nc(Nc4cc(CN5CCN(C(=O)OC(C)(C)C)CC5)ccn4)[nH]c3c2)c(F)cn1 [Example 131.01, tert-butyl 4-[(2-{[6-(5-fluoro-2-methylpyridin-4-yl)-1H-benzimidazol-2-yl]amino}pyridin-4-yl)methyl]piperazine-1-carboxylate]	140 nM
Cc1cc(-c2ccc3nc(Nc4cc(CN5CCN(C(=O)CC(F)(F)F)CC5)ccn4)[nH]c3c2)c(F)cn1 [Example 131.02, 3,3,3-trifluoro-1-{4-[(2-{[6-(5-fluoro-2-methylpyridin-4-yl)-1H-benzimidazol-2-yl]amino}pyridin-4-yl)methyl]piperazin-1-yl}propan-1-one]	62 nM
Cc1cc(-c2ccc3nc(Nc4cc(CN5CCN(C(=O)C6CC6)CC5)ccn4)[nH]c3c2)c(F)cn1 [Example 131.03, cyclopropyl{4-[(2-{[6-(5-fluoro-2-methylpyridin-4-yl)-1H-benzimidazol-2-yl]amino}pyridin-4-yl)methyl]piperazin-1-yl}methanone]	32 nM
CC(C)(C)OC(=O)N1CCN(Cc2ccnc(Nc3nc4ccc(-c5c(F)cncc5Cl)cc4[nH]3)c2)CC1 [Example 132.01, tert-butyl 4-[(2-{[6-(3-chloro-5-fluoropyridin-4-yl)-1H-benzimidazol-2-yl]amino}pyridin-4-yl)methyl]piperazine-1-carboxylate]	180 nM
O=C(CC(F)(F)F)N1CCN(Cc2ccnc(Nc3nc4ccc(-c5c(F)cncc5Cl)cc4[nH]3)c2)CC1 [Example 132.02, 1-{4-[(2-{[6-(3-chloro-5-fluoropyridin-4-yl)-1H-benzimidazol-2-yl]amino}pyridin-4-yl)methyl]piperazin-1-yl}-3,3,3-trifluoropropan-1-one]	190 nM
O=C(C1CC1)N1CCN(Cc2ccnc(Nc3nc4ccc(-c5c(F)cncc5Cl)cc4[nH]3)c2)CC1 [Example 132.03, {4-[(2-{[6-(3-chloro-5-fluoropyridin-4-yl)-1H-benzimidazol-2-yl]amino}pyridin-4-yl)methyl]piperazin-1-yl}(cyclopropyl)methanone]	260 nM
CC(C)(C)OC(=O)N1CCN(Cc2ccnc(Nc3nc4ccc(-c5ccncc5C#N)cc4[nH]3)c2)CC1 [Example 133.01, tert-butyl 4-[(2-{[6-(3-cyanopyridin-4-yl)-1H-benzimidazol-2-yl]amino}pyridin-4-yl)methyl]piperazine-1-carboxylate]	280 nM
N#Cc1cnccc1-c1ccc2nc(Nc3cc(CN4CCN(C(=O)CC(F)(F)F)CC4)ccn3)[nH]c2c1 [Example 133.02, 4-{2-[(4-{[4-(3,3,3-trifluoropropanoyl)piperazin-1-yl]methyl}pyridin-2-yl)amino]-1H-benzimidazol-6-yl}pyridine-3-carbonitrile]	140 nM
CC(C)(C)OC(=O)N1CCN(Cc2ccnc(Nc3nc4ccc(-c5ccnc(N6CCOCC6)c5)cc4[nH]3)c2)CC1 [Example 134.01, tert-butyl 4-{[2-({6-[2-(morpholin-4-yl)pyridin-4-yl]-1H-benzimidazol-2-yl}amino)pyridin-4-yl]methyl}piperazine-1-carboxylate]	57 nM
CN(C)c1cc(-c2ccc3nc(Nc4cc(CN5CCN(C(=O)OC(C)(C)C)CC5)ccn4)[nH]c3c2)ccn1 [Example 135.01, tert-butyl 4-{[2-({6-[2-(dimethylamino)pyridin-4-yl]-1H-benzimidazol-2-yl}amino)pyridin-4-yl]methyl}piperazine-1-carboxylate]	71 nM
CN(C)c1cc(-c2ccc3nc(Nc4cc(CN5CCN(C(=O)CC(F)(F)F)CC5)ccn4)[nH]c3c2)ccn1 [Example 135.02, 1-(4-{[2-({6-[2-(dimethylamino)pyridin-4-yl]-1H-benzimidazol-2-yl)amino)pyridin-4-yl]methyl}piperazin-1-yl)-3,3,3-trifluoropropan-1-one]	23 nM
CN(C)c1cc(-c2ccc3nc(Nc4cc(CN5CCN(C(=O)C6CC6)CC5)ccn4)[nH]c3c2)ccn1 [Example 135.03, cyclopropyl(4-{[2-({6-[2-(dimethylamino)pyridin-4-yl]-1H-benzimidazol-2-yl}amino)pyridin-4-yl]methyl}piperazin-1-yl)methanone]	30 nM
Cc1cc(-c2ccc3nc(Nc4cc(CN5CCN(C(=O)OC(C)(C)C)CC5)ccn4)[nH]c3c2)cc(C#N)n1 [Example 136.01, tert-butyl 4-[(2-{[6-(2-cyano-6-methylpyridin-4-yl)-1H-benzimidazol-2-yl]amino}pyridin-4-yl)methyl]piperazine-1-carboxylate]	53 nM
Cc1cc(-c2ccc3nc(Nc4cc(CN5CCN(C(=O)CC(F)(F)F)CC5)ccn4)[nH]c3c2)cc(C#N)n1 [Example 136.02, 6-methyl-4-{2-[(4-{[4-(3,3,3-trifluoropropanoyl)piperazin-1-yl]methyl}pyridin-2-yl)amino]-1H-benzimidazol-6-yl}pyridine-2-carbonitrile]	38 nM
Cc1cc(-c2ccc3nc(Nc4cc(CN5CCN(C(=O)C6CC6)CC5)ccn4)[nH]c3c2)cc(C#N)n1 [Example 136.03, 4-{2-[(4-{[4-(cyclopropylcarbonyl)piperazin-1-yl]methyl}pyridin-2-yl)amino]-1H-benzimidazol-6-yl}-6-methylpyridine-2-carbonitrile]	21 nM

These reach a lower IC50. Values come first.

IC50	Compound
20 nM	O=C(C1CC1)N1CCN(Cc2ccnc(Nc3nc4ccc(-c5ccnc(F)c5)cc4[nH]3)c2)CC1 [Example 137.03, cyclopropyl{4-[(2-{[6-(2-fluoropyridin-4-yl)-1H-benzimidazol-2-yl]amino}pyridin-4-yl)methyl]piperazin-1-yl}methanone]
19 nM	O=C(C1CC1)N1CCN(Cc2ccnc(Nc3nc4ccc(-c5ccnc(N6CCOCC6)c5)cc4[nH]3)c2)CC1 [Example 134.03, cyclopropyl(4-{[2-({6-[2-(morpholin-4-yl)pyridin-4-yl]-1H-benzimidazol-2-yl}amino)pyridin-4-yl]methyl}piperazin-1-yl)methanone]
13 nM	CC(C)(C)OC(=O)N1CCN(Cc2ccnc(Nc3nc4ccc(-c5ccnc(F)c5)cc4[nH]3)c2)CC1 [Example 137.01, tert-butyl 4-[(2-{[6-(2-fluoropyridin-4-yl)-1H-benzimidazol-2-yl]amino}pyridin-4-yl)methyl]piperazine-1-carboxylate]
11 nM	O=C(CC(F)(F)F)N1CCN(Cc2ccnc(Nc3nc4ccc(-c5ccnc(N6CCOCC6)c5)cc4[nH]3)c2)CC1 [Example 134.02, 3,3,3-trifluoro-1-(4-{[2-({6-[2-(morpholin-4-yl)pyridin-4-yl]-1H-benzimidazol-2-yl}amino)pyridin-4-yl]methyl}piperazin-1-yl)propan-1-one]
5.8 nM	O=C(CC(F)(F)F)N1CCN(Cc2ccnc(Nc3nc4ccc(-c5ccnc(F)c5)cc4[nH]3)c2)CC1 [Example 137.02, 3,3,3-trifluoro-1-{4-[(2-{[6-(2-fluoropyridin-4-yl)-1H-benzimidazol-2-yl]amino}pyridin-4-yl)methyl]piperazin-1-yl}propan-1-one]
5.8 nM	CC(C)(C)OC(=O)N1CCN(Cc2ccnc(Nc3nc4ccc(-c5ccnc(N)c5)cc4[nH]3)c2)CC1 [Example 138.01, tert-butyl 4-[(2-{[6-(2-aminopyridin-4-yl)-1H-benzimidazol-2-yl]amino}pyridin-4-yl)methyl]piperazine-1-carboxylate]
4.3 nM	Nc1cc(-c2ccc3nc(Nc4cc(CN5CCN(C(=O)C6CC6)CC5)ccn4)[nH]c3c2)ccn1 [Example 138.03, {4-[(2-{[6-(2-aminopyridin-4-yl)-1H-benzimidazol-2-yl]amino}pyridin-4-yl)methyl]piperazin-1-yl}(cyclopropyl)methanone]
4.1 nM	Nc1cc(-c2ccc3nc(Nc4cc(CN5CCN(C(=O)CC(F)(F)F)CC5)ccn4)[nH]c3c2)ccn1 [Example 138.02, 1-{4-[(2-{[6-(2-aminopyridin-4-yl)-1H-benzimidazol-2-yl]amino}pyridin-4-yl)methyl]piperazin-1-yl}-3,3,3-trifluoropropan-1-one]
3.9 nM	O=C(CC(F)(F)F)N1CCN(Cc2ccnc(Nc3nc4ccc(-c5nnc(CC6CCC6)o5)cc4[nH]3)c2)CC1 [Example 126.02, 1-(4-{[2-({6-[5-(cyclobutylmethyl)-1,3,4-oxadiazol-2-yl]-1H-benzimidazol-2-yl}amino)pyridin-4-yl]methyl}piperazin-1-yl)-3,3,3-trifluoropropan-1-one]
